Test results: publication PMC5027844 (Cancer cell, 2016)
pIC50: −log10 of the molar value.

Biological target: ARF6 (Homo sapiens, UniProt P62330)
Experiment: fluorometric nucleotide exchange assay
Assay type: biochemical

ARF6, sequence (P62330 2-175): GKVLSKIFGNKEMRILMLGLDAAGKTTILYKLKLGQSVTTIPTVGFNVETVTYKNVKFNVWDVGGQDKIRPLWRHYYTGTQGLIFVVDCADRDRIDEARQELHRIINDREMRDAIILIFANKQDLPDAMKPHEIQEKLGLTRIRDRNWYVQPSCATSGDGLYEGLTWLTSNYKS

- pIC50: 6.00
Substance: NAV-2729
